Where two headings read alike, the source gives them in different places.
How the values were obtained:
Type in all cases: cell-based, Escherichia coli
EKO-35-Pore = test: Checkerboard synergy (FICI), porinated strain
Method in brief: (§1)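 Inocula prepared from resuspended colonies were exposed to PAβN or NMP combined with antibiotics in MHB II checkerboards. Growth was scored by OD600 to define MICs. FICI then classified the interaction, with values under 0.5 counted as synergistic.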

wild-type K-12-Pore = test: Checkerboard synergy (FICI), porinated strain
Method in brief: as §1

[1] = tested on: EKO-35-Pore acrBD408A (functionally inactive AcrB variant); test: Checkerboard synergy (FICI), porinated strain
Method in brief: as §1

[2] = tested on: EKO-35 porinated strain expressing acrB; test: Checkerboard synergy (FICI), porinated strain
Method in brief: as §1

wild-type E. coli K-12 = tested on: wild-type E. coli K-12
Method in brief: as §1

ΔtolC = tested on: ΔtolC
Method in brief: as §1

EKO-35 = tested on: EKO-35
Method in brief: as §1

EKO-35 acrBD408A = tested on: EKO-35 acrBD408A
Method in brief: as §1

ΔtolC-Pore = tested on: ΔtolC-Pore
Method in brief: as §1

[3] = strain EKO-35 Pore, NMP + antibiotic
[4] = strain K-12 Pore, NMP + antibiotic
[5] = strain EKO-35 acrBD408A Pore, NMP + antibiotic
[6] = EKO-35 acrB Pore, NMP + antibiotic
[7] = strain EKO-35 acrB Pore, NMP + antibiotic
[8] = strain EKO-35, NMP + antibiotic
[9] = EKO-35 acrBD408A, PAβN + antibiotic
[10] = strain EKO-35 acrBD408A, NMP + antibiotic
[11] = strain ΔtolC Pore, NMP + antibiotic

Compound: Cc1onc(-c2ccccc2)c1C(=O)N[C@@H]1C(=O)N2[C@@H]1SC(C)(C)[C@@H]2C(=O)O [oxacillin]
- Effect (EKO-35-Pore; EKO-35 Pore, NMP + antibiotic): Additive
- FICI (EKO-35-Pore; EKO-35 Pore, NMP + antibiotic): 0.750
- FICI (EKO-35-Pore; EKO-35 Pore, PAβN + antibiotic): 1.020
- MICb Alone (EKO-35-Pore; EKO-35 Pore, antibiotic alone (PAβN checkerboard)): 0.25 µg/mL
- MICb Combined (EKO-35-Pore; EKO-35 Pore, antibiotic in combination with PAβN): 0.13 µg/mL
- interaction of PAβN in combination with the labelled antibiotic (FICI) (EKO-35-Pore; porinated efflux-deficient strains): no longer synergistic
- Effect (EKO-35-Pore; [3]): Additive (additive (FICI >0.5-1.0))
- FICI (EKO-35-Pore; [3]): 0.750
- MICb Alone (EKO-35-Pore; strain EKO-35 Pore, antibiotic alone): 0.5 µg/mL
- MICb Combined (EKO-35-Pore; strain EKO-35 Pore, antibiotic in combination with NMP): 0.25 µg/mL
- Effect (wild-type K-12-Pore; K-12 Pore, NMP + antibiotic): Synergistic
- FICI (wild-type K-12-Pore; K-12 Pore, NMP + antibiotic): 0.266
- Effect (wild-type K-12-Pore; K-12 Pore, PAβN + antibiotic): Additive
- FICI (wild-type K-12-Pore; K-12 Pore, PAβN + antibiotic): 0.750
- MICb Alone (wild-type K-12-Pore; K-12 Pore, antibiotic alone (PAβN checkerboard)): 32 µg/mL
- MICb Combined (wild-type K-12-Pore; K-12 Pore, antibiotic in combination with PAβN): 16 µg/mL
- Effect (wild-type K-12-Pore; [4]): Synergistic (Synergy (FICI ≤0.5))
- FICI (wild-type K-12-Pore; [4]): 0.266
- MICb Alone (wild-type K-12-Pore; strain K-12 Pore, antibiotic alone): 64 µg/mL
- MICb Combined (wild-type K-12-Pore; strain K-12 Pore, antibiotic in combination with NMP): 16 µg/mL
- FICI ([1]; EKO-35 acrBD408A Pore, NMP + antibiotic): 2.000
- FICI ([1]; EKO-35 acrBD408A Pore, PAβN + antibiotic): 1.020
- MICb Alone ([1]; EKO-35 acrBD408A Pore, antibiotic alone (PAβN checkerboard)): 0.25 µg/mL
- MICb Combined ([1]; EKO-35 acrBD408A Pore, antibiotic in combination with PAβN): 0.13 µg/mL
- Effect [1, 5]: — (indifferent (FICI >1.0))
- FICI [1, 5]: 2.000
- MICb Alone ([1]; strain EKO-35 acrBD408A Pore, antibiotic alone): 0.13 µg/mL
- MICb Combined ([1]; strain EKO-35 acrBD408A Pore, antibiotic in combination with NMP): 0.13 µg/mL
- Effect [2, 6]: Synergistic
- FICI [2, 6]: 0.500
- Effect ([2]; EKO-35 acrB Pore, PAβN + antibiotic): Synergistic
- MICb Combined ([2]; EKO-35 acrB Pore, antibiotic in combination with PAβN): 16 µg/mL
- potentiation of the labelled compound by NMP ([2]; porinated strain producing AcrB): enhancing the activity
- Effect [2, 7]: Synergistic (Synergy (FICI ≤0.5))
- FICI [2, 7]: 0.500
- MICb Alone ([2]; strain EKO-35 acrB Pore, antibiotic alone): 64 µg/mL
- MICb Combined ([2]; strain EKO-35 acrB Pore, antibiotic in combination with NMP): 16 µg/mL
- Effect (wild-type E. coli K-12; K-12, NMP + antibiotic): Synergistic
- FICI (wild-type E. coli K-12; K-12, NMP + antibiotic): 0.375
- Effect (wild-type E. coli K-12; K-12, PAβN + antibiotic): Synergistic
- FICI (wild-type E. coli K-12; K-12, PAβN + antibiotic): 0.188
- MICb Alone (wild-type E. coli K-12; K-12, antibiotic alone (PAβN checkerboard)): 512 µg/mL
- MICb Combined (wild-type E. coli K-12; K-12, antibiotic in combination with PAβN): 32 µg/mL
- Effect (wild-type E. coli K-12; strain K-12, NMP + antibiotic): Synergistic (Synergy (FICI ≤0.5))
- FICI (wild-type E. coli K-12; strain K-12, NMP + antibiotic): 0.375
- MICb Alone (wild-type E. coli K-12; strain K-12, antibiotic alone): 512 µg/mL
- Effect (ΔtolC; strain ΔtolC, NMP + antibiotic): Additive (additive (FICI >0.5-1.0))
- FICI (ΔtolC; strain ΔtolC, NMP + antibiotic): 0.531
- MICb Alone (ΔtolC; strain ΔtolC, antibiotic alone): 1 µg/mL
- MICb Combined (ΔtolC; strain ΔtolC, antibiotic in combination with NMP): 0.5 µg/mL
- Effect (ΔtolC; ΔtolC, NMP + antibiotic): Additive
- FICI (ΔtolC; ΔtolC, NMP + antibiotic): 0.531
- Effect (ΔtolC; ΔtolC, PAβN + antibiotic): Synergistic
- FICI (ΔtolC; ΔtolC, PAβN + antibiotic): 0.313
- MICb Alone (ΔtolC; ΔtolC, antibiotic alone (PAβN checkerboard)): 1 µg/mL
- MICb Combined (ΔtolC; ΔtolC, antibiotic in combination with PAβN): 0.25 µg/mL
- Effect (EKO-35; EKO-35, NMP + antibiotic): Additive
- FICI (EKO-35; EKO-35, NMP + antibiotic): 0.510
- Effect (EKO-35; EKO-35, PAβN + antibiotic): Synergistic
- FICI (EKO-35; EKO-35, PAβN + antibiotic): 0.323
- MICb Alone (EKO-35; EKO-35, antibiotic alone (PAβN checkerboard)): 0.5 µg/mL
- MICb Combined (EKO-35; EKO-35, antibiotic in combination with PAβN): 0.13 µg/mL
- interaction of PAβN in combination with the labelled antibiotic (FICI) (EKO-35; efflux-deficient strains EKO-35, EKO-35 acrBD408A, ΔtolC): synergized
- Effect (EKO-35; [8]): Additive (additive (FICI >0.5-1.0))
- FICI (EKO-35; [8]): 0.510
- MICb Alone (EKO-35; strain EKO-35, antibiotic alone): 0.5 µg/mL
- MICb Combined (EKO-35; strain EKO-35, antibiotic in combination with NMP): 0.13 µg/mL
- FICI (EKO-35 acrBD408A; EKO-35 acrBD408A, NMP + antibiotic): 2.000
- Effect (EKO-35 acrBD408A; [9]): Synergistic
- FICI (EKO-35 acrBD408A; [9]): 0.185
- MICb Alone (EKO-35 acrBD408A; EKO-35 acrBD408A, antibiotic alone (PAβN checkerboard)): 1 µg/mL
- MICb Combined (EKO-35 acrBD408A; EKO-35 acrBD408A, antibiotic in combination with PAβN): 0.06 µg/mL
- Effect (EKO-35 acrBD408A; [10]): — (indifferent (FICI >1.0))
- FICI (EKO-35 acrBD408A; [10]): 2.000
- MICb Alone (EKO-35 acrBD408A; strain EKO-35 acrBD408A, antibiotic alone): 0.13 µg/mL
- MICb Combined (EKO-35 acrBD408A; strain EKO-35 acrBD408A, antibiotic in combination with NMP): 0.13 µg/mL
- Effect (ΔtolC-Pore; [11]): Additive (additive (FICI >0.5-1.0))
- FICI (ΔtolC-Pore; [11]): 0.531
- MICb Alone (ΔtolC-Pore; strain ΔtolC Pore, antibiotic alone): 1 µg/mL
- MICb Combined (ΔtolC-Pore; strain ΔtolC Pore, antibiotic in combination with NMP): 0.5 µg/mL
- Effect (ΔtolC-Pore; ΔtolC Pore, NMP + antibiotic): Additive
- FICI (ΔtolC-Pore; ΔtolC Pore, NMP + antibiotic): 0.531
- Effect (ΔtolC-Pore; ΔtolC Pore, PAβN + antibiotic): Additive
- FICI (ΔtolC-Pore; ΔtolC Pore, PAβN + antibiotic): 0.740
- MICb Alone (ΔtolC-Pore; ΔtolC Pore, antibiotic alone (PAβN checkerboard)): 0.25 µg/mL
- MICb Combined (ΔtolC-Pore; ΔtolC Pore, antibiotic in combination with PAβN): 0.06 µg/mL
